# Experimental data reported in US9844565B2, “Systems and methods for treatment of acne vulgaris and other conditions with a topical nitric oxide delivery system” (priority 2012, dated 2017).
# Tests used:
# [1] = tested on: capillary circulation of the skin; test: Laser Doppler study in five human subjects, 10,000 ppm NO formulation vs controls (Example 7); assay type: in vivo; conditions: positive control formulation containing 0.1% methyl nicotinate
# From the text: This example illustrates delivery of nitric oxide formulations to five human subjects, using procedures and formulations similar to those discussed in Example 5. Each person served as their own control for the testing. A Moor Instruments Laser Doppler was used to determine circulation. […] The formulations used produce positive, almost immediate results when applied to the skin which, in these studies, was manifested by vasodilatation of the cutaneous vascular system.
# For each subject, the following creams were applied: a negative control formulation (containing no NO), 0.010 gram of a 10,000 ppm NO formulation, 0.020 gram of a 10,000 ppm NO formulation, and a positive control formulation containing 0.1% methyl nicotinate. The formulations were prepared using procedures similar to those discussed in Example 1.
# [2] = tested on: micro-capillary blood flow to skin; test: Laser Doppler study with covered chamber in three human female subjects, 10,000 ppm NO (Example 5); assay type: in vivo; conditions: applied to the skin at 1/10% in alcohol
# From the text: While nitric oxide has many physiological effects, the purpose of these studies was to measure physiological effects that would be relatively easy to determine, and which would be noninvasive. […] Nitric oxide is capable of […] the capillary bed, and thus, laser Doppler was selected.
# The formulation used in these studies contained nitric oxide dispersed in a lipid matrix. […] Nitric oxide is a very rapid acting molecule, and these studies used a system that employed laser Doppler with a covered chamber. The formulation was placed into the chamber and then attached to the skin by an adhesive layer on the covering. This provided a stable measuring device as determined by multiple normal evaluations of the capillary blood flow without treatment of nitric oxide.
# A known positive control, methyl nicotinate, was applied to the skin at a concentration of 1/10% in alcohol. […] The vascular dynamics are such that when the blood vessels dilate physical parameters follow Bernoulli's law. […] The laser Doppler device accurately measured these parameters. […]
# A Moor Instruments DRT4 Laser Doppler Blood Flow Monitor (Devon, England) was used in these studies. The laser Doppler technique measured blood flow in the microcapillaries of the skin that are close to the skin surface and the blood flow in underlying arterioles and venules that help to regulate skin temperature. […]
structure (smiles),measurement,setting,value
COC(=O)c1cccnc1 [methyl nicotinate],vasodilatation (laser Doppler),[1],vasodilatation was observed
same,laser Doppler response of positive control,[2],rapid response typical of the vasodilator
